The values below come from patent EP2292587A1, “PHARMACEUTICAL COMPOSITION FOR INHIBITING THE TRANSCRIPTION FACTOR INDUCIBLE BY HYPOXIA, MODULATORS OF PATHOLOGICAL PROCESSES OF ANGIOGENESIS, ONCOGENESIS, INFLAMMATION, APOPTOSIS, AND CELLULAR THERAPY” (Fundacion De La Comunidad Valenciana Centro De …, priority 2008, dated 2009).

The test system of assay [1] is HT29. Kind of assay: anchorage-independent growth in semisolid agar, HT29. The format is cell-based, human. To be noted: 0.5 µM, 10 days, versus DMSO, p ≤ 0.005. As for the experimental part: Anchorage-independent cell growth is a study which allows predicting the tumorigenicity of tumor cells in vivo. Anchorage-independent cell growth studies were performed for HT29, HCT116/p53^+/+ and HCT116/p53^-/- cells in semisolid agar which were monitored daily to determine the efficiency of the formation of colonies in the presence of carrier (DMSO) or FM19G11. To that end, the starting material was 75 x 10^3 cells suspended in semisolid agar, which were maintained until 10 days later. […] A reduction of the formation of colonies in the HCT116/p53^-/- cells is not observed. The growth of colonies was quantified in three independent experiments by means of counting colonies in the 4 x magnification optical field of an inverted optical microscope.

Assay [2] deals with PHD3, HIF1α and HIF2α. Kind of assay: Western blot of HIF target proteins in HeLa9XHRE-LUC cells. Type of assay: cell-based. Further details: dose or concentration left out as unconfirmed. To be noted: hypoxic conditions, 9 hours. How it is done: The HeLa9XHRE/LUC cells were lysed with a hypotonic buffer (10 mM Tris-HCl, pH 7.5, 1.5 mM MgCl2, I mM KCIO, 2 mM DTT, 1 mM Pefabloc, 2 mM sodium vanadate, 4 µg/ml pepstatin, 4 µg/ml leupeptin, and 4 µg/ml aprotinin), preserved 20 minutes in ice and subsequently centrifuged for 10 minutes at 1,200 rpm, collecting the supernatant and preserving it at -20°C until its use. The quantification of the proteins was performed with colorimetric Coomassie blue method described by Bradford. A commercial system was used following the manufacturer's instructions (PIERCE Chem Co., Rockford III. USA). Bovine serum albumin (A-7906, SIGMA Chem Co., St. Louis MO, USA) was used to generate a standard curve (0-200 µg of protein). Five microliters of each sample were pipetted in a 96-well plate and […] of the Coomassie solution were added and it was maintained in darkness for 5 minutes at room temperature and the absorbance at OD 595 nm was measured in a spectrophotometer. By means of the Graph-Pad statistical program, the standard line was calculated and the values were extrapolated for each of the samples. The final values were expressed as mcg/mcl of protein. The electrophoresis of proteins of the extract was carried out in polyacrylamide gels under denaturing conditions (SDS-PAGE). A commercial mixture of proteins for low molecular mass polypeptides (Amersham) was used as a molecular size standard. […]

Assay [3] deals with C17.2. Put plainly: toxicity in C17.2 neural stem cells. As to conditions: Mus musculus. The format is cell-based. How it is done:
C17.2 were cultured in an undifferentiated state using a high-glucose Dulbecco's modified medium (DMEM) supplemented with 10% fetal calf serum, 5% horse serum, 1% glutamine (2 mM), 1% penicillin/streptomycin/fungizone. The cells were seeded at 1500 cells/cm^2, both for normoxic conditions and for hypoxic conditions. The culture of cells in normoxia was carried out in an incubator with 20% O2, 5% CO2, 37°C and the standard percentage of humidity (94%). The conditions of low concentration of O2 were created by using a hypoxia chamber (Invivo2 400, Ruskinn Life Sciences), with the mixture of gases 1% O2, 5% CO2, and 94% N2 at 37°C. The cells were maintained under the normoxic and hypoxic conditions at different times 3, 6, 9, 24, 48 hours. They were subsequently collected and the proteins and the mRNA were extracted using a commercial kit, NucleoSpin RNA/protein (Macherey Nagel) according to the manufacturers' instructions. The concentrations of 19G11 used during the studies conducted are 125, 250 and 500 nM. The concentrations were used according to the results obtained after evaluating the toxicity of C17.2 due to the presence of the compound, since IC50 >1 µM.

Assay [4] deals with HT29. Kind of assay: clonicity assay, HT29. Type of assay: cell-based. As to conditions: Homo sapiens, HT-29; stimulated 72 hours, colonies counted after 10 days; read-out: survival IC50. How it is done:
Clonicity assays were conducted to determine the toxicity of FM19G11 in p53-proficient (HT29 and HCT116/p53^+/+) and p53-deficient (HCT116/p53^-/-) tumor cells. Once the HT-29, HCT116/p53^+/+ and HCT116/p53^-/- cells were adhered to the culture plate, they were stimulated with increasing concentrations of FM19G11 (0.5, 1, 5, 10, 20, 50 µM) for 72 hours. After 10 days of stimulation, the number of colonies formed in the plates of treated and untreated cells was determined.
Results of the clonicity assays of HT29 human colon cancer cells, HCT116 cells treated with FM19G11 were monitored up to 10 after the treatment (Figure 28). The IC50 was determined by extrapolating the percentage with the concentration. FM19G11 was used at concentrations: 0.5, 1, 5, 10, 50, 100, 200 µM

As to `Cc1ccc(C(=O)COC(=O)c2cccc(NC(=O)c3ccc([N+](=O)[O-])cc3[N+](=O)[O-])c2)cc1` [FM19G11, 2-oxo-2-(p-tolyl)ethyl 3-((2,4-dinitro)benzamido)benzoate], the “growth of colonies in semisolid agar” value in assay [1] is recorded as “significant decrease”. The “expression of HIF 1α and 2α, as well as of PHD3” value in assay [2] was “decrease”. Also, the IC50 in assay [3] was greater than 1000 nM; in assay [4] it was 1000 nM.
